Columns and labels:
Type in all cases: cell-based
[1] = target: T1, CIC-1 ion channel (Rattus norvegicus, UniProt P35524); test: Electrophysiological measurement (Gm, three micro-electrodes) of compound inhibition of CIC-1 in rat soleus muscle fibres; conditions: approx. 30° C., four increasing compound concentrations, read-out: EC50 (inhibition of CIC-1 ion channel, reduction of Gm)
T1 construct: CIC-1 channels in native tissue of rat skeletal muscle fibres; from tissue; host or cells: whole soleus muscle of 12-14 week old Wistar rats
T1 sequence (P35524 1-994): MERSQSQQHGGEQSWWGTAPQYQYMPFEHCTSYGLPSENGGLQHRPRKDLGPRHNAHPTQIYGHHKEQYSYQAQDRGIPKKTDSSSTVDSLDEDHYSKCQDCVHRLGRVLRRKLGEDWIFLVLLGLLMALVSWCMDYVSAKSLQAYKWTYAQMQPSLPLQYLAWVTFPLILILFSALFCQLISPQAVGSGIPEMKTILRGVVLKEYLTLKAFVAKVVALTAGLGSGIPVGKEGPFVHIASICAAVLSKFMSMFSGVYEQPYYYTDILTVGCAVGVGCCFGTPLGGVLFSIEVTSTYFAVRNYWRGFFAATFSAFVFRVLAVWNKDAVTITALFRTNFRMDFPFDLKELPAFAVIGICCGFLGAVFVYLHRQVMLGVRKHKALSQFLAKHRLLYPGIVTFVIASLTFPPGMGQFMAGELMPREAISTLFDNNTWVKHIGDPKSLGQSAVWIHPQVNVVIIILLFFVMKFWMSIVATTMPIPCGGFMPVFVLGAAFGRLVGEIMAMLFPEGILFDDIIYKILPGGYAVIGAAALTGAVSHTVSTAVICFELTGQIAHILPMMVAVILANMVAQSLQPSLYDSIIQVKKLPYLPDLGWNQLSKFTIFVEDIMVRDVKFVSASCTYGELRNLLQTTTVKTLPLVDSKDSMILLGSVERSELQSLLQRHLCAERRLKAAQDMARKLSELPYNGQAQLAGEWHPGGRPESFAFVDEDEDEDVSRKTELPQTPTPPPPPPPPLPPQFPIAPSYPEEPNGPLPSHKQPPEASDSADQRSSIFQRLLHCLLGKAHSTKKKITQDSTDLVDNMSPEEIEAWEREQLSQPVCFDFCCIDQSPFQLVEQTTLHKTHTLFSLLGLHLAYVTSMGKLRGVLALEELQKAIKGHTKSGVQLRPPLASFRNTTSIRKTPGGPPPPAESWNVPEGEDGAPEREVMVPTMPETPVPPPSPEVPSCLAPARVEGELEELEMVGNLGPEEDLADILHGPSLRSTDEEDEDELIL
Excerpt: FIG. 1. […] Please note that the drawing illustrates only the impaled fibre although it is part of an intact muscle that contains many such fibres. All electrodes recorded the membrane potential of the fibre and the two peripheral electrodes were used to inject current (−30 nA, 50 ms). The electrodes were inserted with known inter-electrode distances (X1, X2 and X3). After insertion, current was passed first via the V1 electrode and then via the V3 electrode. The resulting deflections in the membrane voltage were measured by the other electrodes. The steady state deflections in membrane potential were measured and divided by the magnitude of the injected current (−30 nA) to obtain transfer resistances. These were next plotted against inter-electrode distances, and fitted to an exponential function (Panel B), from which Gm could be calculated using linear cable theory. The approach described in panel A and B, was repeated for several muscle fibres in the muscle during exposure at increasing concentrations of compound E-8, with approx. 10 fibres at each concentration. Average Gm at each concentration was plotted as a function of compound concentration in panel C, and fitted to a 4-parameter sigmoidal function from which the EC50 value for the compound was obtained (dashed line)
Apparent CIC-1 affinity was reported by the concentration of compound at which 50% of the compound's full inhibition of CIC-1 was observed (EC50).
CIC-1 Cl^− ion channels generate around 80% of the total membrane conductance (Gm) in resting skeletal muscle fibres of most animals including rat and human (Bretag, A H. Muscle chloride channels. Physiological Reviews, 1987, 67, 618-724). […] CIC-1 inhibition would in such recordings be reflected by a reduction of Gm.
Experimentally, Gm was measured in individual fibres of whole rat soleus muscles using a three micro-electrodes technique described in this example and in full detail elsewhere (Riisager et al., Determination of cable parameters in skeletal muscle fibres during repetitive firing of action potentials. Journal of Physiology, 2014, 592, 4417-4429). Briefly, intact rat soleus muscles were dissected out from 12-14 week old Wistar rats and placed in an experimental chamber that was perfused with a standard Krebs Ringer solution containing 122 mM NaCl, 25 mM NaHCO3, 2.8 mM KCl, 1.2 mM KH2PO4, 1.2 mM MgSO4, 1.3 mM CaCl2, 5.0 mM D-glucose. During experiments, the solution was kept at approx. 30° C. and continuously equilibrated with a mixture of 95% O2 and 5% CO2, pH˜7.4. The experimental chamber was placed in Nikon upright microscope that was used to visualize individual muscle fibres and the three electrodes (glass pipettes filled with 2 M potassium citrate). For Gm measurements, the electrodes were inserted into the same fibre with known inter-electrode distances of 0.35-0.5 mm (V1-V2, X1) and 1.1-1.5 mm (V1-V3, X3) (FIG. 1A). The membrane potential of the impaled muscle fibre was recorded by all electrodes. Two of the electrodes were furthermore used to inject 50 ms current pulses of −30 nA. […] The steady state voltage deflection at each distance was divided by the magnitude of current injected (−30 nA) and the resulting transfer resistances were plotted against inter-electrode distance and the data was fitted to a mono-exponential function from which Gm could be calculated using linear cable theory (FIG. 1B).
To establish a dose response relationship, Gm was first determined in 10 muscle fibres in the absence of compound and then at four increasing compound concentrations with Gm determinations in 5-10 fibres at each concentration. The average Gm values at each concentration were plotted against compound concentration and the data was fitted to sigmoidal function to obtain an EC50 value (FIG. 1C).

[2] = tested on: isolated rat soleus muscles; test: Measurement of force in an in vitro model: isolated rat soleus nerve-muscle preparation with tubocurarine; conditions: Rattus norvegicus, 40 min; 50 μM test compound, after 40 mins of compound exposure; 115 nM tubocurarine for 90 mins; read-out: Point increase (%) of initial force that was restored
Experimental: FIG. 2. […] Force traces from a representative muscle stimulated to contract in 1) control condition before addition of neuromuscular blocking agent, 2) the force response to stimulation after 90 minutes incubation with Tubocurarine. […] The traces presented in panel A (1, 2, 3), correspond to the dotted lines in panel B, respectively.
Recovery of force is quantified as the percentage of the force prior to tubocurarine that is recovered by the compound.
The current disclosure relates to compounds that inhibit CIC-1 ion channels and increase muscle excitability and thereby improve muscle function in clinical conditions where muscle activation is failing. Such conditions result in loss of contractile function of skeletal muscle, weakness and excessive fatigue. In this series of experiments the compounds were tested for their ability to restore contractile function of isolated rat muscle when the neuromuscular transmission had been compromised akin to neuromuscular disorders.
Experimentally, soleus muscles from 4-5 week old rats were isolated with the motor nerve remaining attached. The nerve-muscle preparations were mounted in experimental setups that enabled electrical stimulation of the motor nerve. Stimulation of the motor nerve led to activation of the muscle fibres and ensuing force production that was recorded. The nerve-muscle preparations were also in these experiments incubated in the standard Krebs Ringer (see example 5) and the solution was heated to 30° C. and continuously equilibrated with a mixture of 95% O2 and 5% CO2, pH˜7.4.
After mounting the nerve-muscle preparation in the experimental setup, the contractile function of the muscle was initially assessed under the control conditions (FIG. 2A). […] The experimental condition mimics the failing neuromuscular transmission in a range of neuromuscular disorders. After addition of tubocurarine the contractile force declined over the next 90 mins to 10-50% of the control force. 50 μM of the test compound was then added and the contractile force recovered despite the continued presence of tubocurarine. To quantify the ability of the compound to restore force the percentage of the initial force that was restored was determined after 40 mins of compound exposure (FIG. 2B) and the point increase is reported in Table 3.

[3] = target: T2, human CIC-1 channels (Homo sapiens, UniProt P35523); test: Automated patch-clamp on the human isoform of CIC-1 expressed in CHO cells; conditions: compound added to the intracellular solution vs control cell patches, positive shift reflects inhibition
T2 construct: host or cells: CHO (Chinese hamster ovary) cells, cryopreserved, used directly after thawing
Experimental: The investigatory goal of these experiments was to evaluate how compounds affect the open probability and current amplitude of human CIC-1 channels expressed in CHO cells. Experiments were performed using an automated patch clamp system that allowed high throughput testing of whole cell patches together with both intracellular and extracellular addition of compound.
Automated whole cell patch clamp experiments were performed with the Qpatch 16 system (Sophion Bioscience, Ballerup, Denmark) at room temperature. Data acquisition and analysis were performed in the Qassay software (ver. 5.6, Odense).
To obtain tail currents, the membrane potential was stepped to −100 mV after each test voltage for 300 ms and then relaxed to −30 mV for 2 sec between sweeps (FIG. 3). I/V relationships for whole cell instant and steady state current amplitudes were obtained by plotting average current densities at the beginning and at the end of the 300 ms step against the membrane potential (FIG. 4).
In order to determine the relative overall open probability (Po), the instantaneous tail currents were normalized to the maximal tail current obtained following the most positive voltage step and plotted against the test voltage. Plots of normalized tail currents from each whole cell patch were then fitted to a Boltzmann function allowing determination of half activation voltages (V1/2, FIG. 5).
Osmolality adjusted to ˜320 using sucrose. Intracellular solutions contained: 80 mM CsF, 60 mM CsCl, 5/1 mM KOH/EGTA, 10 mM HEPES, 10 mM NaCl, pH adjusted to 7.2 with NaOH (2 M). Osmolality adjusted to ˜320 mOsm using sucrose.
Cells used in patch clamp experiments were Chinese hamster ovary cells (CHO) constitutively expressing human CIC-1 channels. The amino acid sequence encoded by the cDNA used to create this cell line was identical to the translated sequence for GenBank accession number NM_000083.2. Cells were produced by Charles River (Catalogue CT6175, Cleveland Ohio, USA) in a cryopreserved format. Experiments were performed on the cells directly after thawing (3×10^6 cells used in each experiment).
To evaluate the compound effect on CIC-1, when applied directly to the intracellular side of the cell membrane, the half activation voltage, V1/2, was determined from whole cell patches with compound added to the intracellular solution and then compared to V1/2 determined from control cell patches with only vehicle added to the intracellular solution. Additionally, the effect of extracellular added compound was evaluated by determine V1/2 and steady state current amplitudes before and after exchanging the extracellular solution to contain compound.
The difference in half activation voltage of CIC-1 channels, ΔV1/2, was determined as the difference between the cell patches treated intracellularly with compound and control cells patches and is reported in Table 4 below. A positive shift in ΔV1/2 is reflecting CIC-1 channel inhibition by the tested compound. P-values of <0.05 is considered significant.

T2 sequence (P35523 whole entry, canonical isoform): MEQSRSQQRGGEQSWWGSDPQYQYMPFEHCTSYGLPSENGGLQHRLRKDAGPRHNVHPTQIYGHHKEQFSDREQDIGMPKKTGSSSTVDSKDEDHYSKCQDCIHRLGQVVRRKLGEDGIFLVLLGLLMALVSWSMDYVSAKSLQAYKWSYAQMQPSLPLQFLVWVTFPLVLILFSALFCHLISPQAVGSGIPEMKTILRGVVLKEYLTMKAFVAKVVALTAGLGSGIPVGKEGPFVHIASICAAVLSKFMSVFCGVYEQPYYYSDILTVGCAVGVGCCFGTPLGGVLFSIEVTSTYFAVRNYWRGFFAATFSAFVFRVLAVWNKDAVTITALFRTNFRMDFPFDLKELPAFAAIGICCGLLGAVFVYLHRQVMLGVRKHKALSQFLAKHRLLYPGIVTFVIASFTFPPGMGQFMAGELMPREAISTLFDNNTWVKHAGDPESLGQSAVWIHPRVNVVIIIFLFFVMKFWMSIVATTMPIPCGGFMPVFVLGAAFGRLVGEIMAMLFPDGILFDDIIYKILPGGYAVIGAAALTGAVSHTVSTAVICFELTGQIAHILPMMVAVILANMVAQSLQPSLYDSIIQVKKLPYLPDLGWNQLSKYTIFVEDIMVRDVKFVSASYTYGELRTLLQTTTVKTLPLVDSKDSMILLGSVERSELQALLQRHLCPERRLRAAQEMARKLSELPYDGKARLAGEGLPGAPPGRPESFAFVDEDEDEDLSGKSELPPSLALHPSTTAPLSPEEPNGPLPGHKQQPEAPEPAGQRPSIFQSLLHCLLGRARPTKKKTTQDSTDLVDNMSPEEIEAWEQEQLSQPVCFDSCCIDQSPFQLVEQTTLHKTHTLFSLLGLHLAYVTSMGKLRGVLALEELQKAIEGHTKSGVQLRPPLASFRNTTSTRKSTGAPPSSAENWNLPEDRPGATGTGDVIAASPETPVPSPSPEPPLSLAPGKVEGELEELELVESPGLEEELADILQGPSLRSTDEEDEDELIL

| SMILES | EC50 [1] [µM] | activation at 50 µM [2] [%] | ΔV1/2 (difference in half activation voltage of CIC-1 channels) [3] [mV] |
| --- | --- | --- | --- |
| CONC(=O)[C@H](C)Oc1ccc(Cl)cc1 [Compound C-85, (2S)-2-(4-chlorophenoxy)-N-methoxypropanamide] | 10.1 | 45 | – |
| CONC(=O)[C@H](C)Oc1ccc(Br)cc1F [Compound C-64, (2S)-2-(4-bromo-2-fluorophenoxy)-N-methoxypropanamide] | 3.1 | 24 | – |
| C[C@H](Oc1ccc(Cl)cc1)C(=O)NOCC1CC1 [Compound C-74, (2S)-2-(4-chlorophenoxy)-N-(cyclopropylmethoxy)propanamide] | 3.4 | 22 | – |
| C[C@H](Oc1ccc(Br)cc1Br)C(=O)NC#N [Compound B-2, (2S)-N-cyano-2-(2,4-dibromophenoxy)propanamide] | – | – | 6.2 |
| CC(C)[C@H](Oc1ccc(Br)cc1)C(=O)NC#N [Compound B-5, (2S)-2-(4-bromophenoxy)-N-cyano-3-methylbutanamide] | 19.6 | – | 26.6 |
| COC(=O)CONC(=O)[C@H](C)Oc1ccc(Cl)cc1 [Compound C-78, methyl 2-{[(2S)-2-(4-chlorophenoxy)propanamido]oxy}acetate] | 3.1 | 41 | – |
| CC[C@H](Oc1ccc(Br)cc1)c1nn[nH]n1 [Compound E-5, 5-[(1S)-1-(4-bromophenoxy)propyl]-2H-1,2,3,4-tetrazole] | – | – | 13.9 |
| C[C@H](Oc1ccc(Cl)cc1)C(=O)NOCC1CCC1 [Compound C-75, (2S)-2-(4-chlorophenoxy)-N-(cyclobutylmethoxy)propanamide] | 2 | 36 | – |
| CC(=O)N1CCC(ONC(=O)[C@H](C)Oc2ccc(Br)cc2)C1 (stereo partly shown) [Compound C-8] | – | 45 | 10.3 |
| CC(=O)NCCON(C(C)=O)C(=O)[C@H](C)Oc1ccc(Cl)cc1 [Compound C-22, (2S)-N-acetyl-2-(4-chlorophenoxy)-N-(2-acetamidoethoxy)propanamide] | 7.8 | 22 | – |
| C[C@H](Oc1ccc(Cl)cc1)C(=O)NC#N [Compound B-4, (2S)-2-(4-chlorophenoxy)-N-cyanopropanamide] | – | – | 21.2 |
